These results are taken from US20250241890A1, “1,4-DIUREAS AND 1,4-DITHIOUREAS AND USES THEREOF” (Purdue Research Foundation, priority 2024, published 2025).

In one assay the target is T1, α-synuclein (α-syn) (Homo sapiens, UniProt P37840).
T1 construct: purchased rPeptide (Watkinsville, GA)
The assay is described as follows: Thioflavin T (ThT) fluorescence assay of α-syn fibril formation. The settings on record: α-syn 2 μM final concentration, compounds at 100 μM, average of three replicates with SEM; read-out: % ThT intensity (100 μM), maximum ThT intensity in percentage. The class given is biochemical. Here is the method:
Chemical and peptide source. Dimethylsulfoxide (DMSO) and thioflavin-T (ThT) were purchased from Alfa Aesar (Ward Hill, MA). Recombinant α-synuclein (α-syn) was procured from rPeptide (WatKinsville, GA). The recombinant p-tau isoform 1N4R was prepared as published previously (Fortin et al. 2021, Sui et al. 2015, Liu et al. 2020). Concerning the preparation of tau 0N4R, a bacterial expression plasmid consisting of the vector pET30a carrying a cDNA encoding the human Tau 0N4R isoform was a kind gift of Dr. Benjamin Wolozin (Boston University). E. coli stock (Rosetta BL21 E. coli (CamR) containing pET30a [0N4R tau wt] (KanR)) was grown in LB medium supplemented with kanamycin (50 μg/mL) and chloramphenicol (50 μg/mL). Protein over-expression was induced by the addition of 1 mM IPTG for ˜18 hours at 37° C., and cells were pelleted by centrifugation at 6,000 g for 15 minutes at 4° C. The cells were resuspended in lysis buffer (10 mM Hepes, pH 7.4, 50 mM NaCl, 1 mM MgCl2, 1 mM PMSF, 1× PIC, and 0.5 mM DTT) and lysed by sonication at 30 seconds “On” and 1 minute “Off” at ˜30-45% power for ˜3-5 minutes. Lysate was centrifuged at 10,000 rpm for 10 minutes at 4° C., and supernatant was transferred with 7.8 ml (total) of 3M NaCl. The lysate was incubated for 10 minutes in 80° C. water bath, then cooled for 10 minutes in an ice bath. The lysate was centrifuged at 10,000 rpm at 4° C. for 10 minutes, and the supernatant was transferred to a new tube. The supernatant was dialyzed overnight against cation exchange buffer (50 mM MES, […], 1 mM DTT, pH 6.0). The dialysate was loaded onto a HiPrep SP HP column, and proteins were eluted with a linear gradient ranging from 50 mM to 1 M NaCl. General Characterizations. ^1H and ^13C {1H} NMR spectra were recorded using a 500 MHz Bruker instrument working at a frequency of 500 MHz for ^1H and at 126 MHz for ^13C. Chemical shifts are reported in ppm using residual solvent resonances as internal reference (δ 2.50 and δ 39.51 for ^1H and ^13C in DMSO-d6, respectively). ^1H NMR data are reported as follows. b=broad, s=singlet, d=doublet, t=triplet, q=quartet, and m=multiplet. Coupling constants are given in hertz. The purity of all compounds and synthetic intermediates was judged to be 95% or better based on ^1H NMR. IR measurements were performed in a Nicolet FTIR as thin films in the Purdue Drug Discovery facility. High-resolution mass spectrometry analyses were conducted at the MSU Mass Spectrometry facility. Thioflavin fluorescence assays. […] The recombinant α-syn obtained from rPeptide has been validated with proper quality control to confirm the monomeric state of the protein. Kinetics of fibril formation have been performed using ThT as published previously.^6, 12, 13, 24 The fluorescence emission experiments were performed with the excitation and emission wavelengths set at 440 and 485 nm, respectively, with a Synergy HT multi-mode microplate reader (BioTek, Winooski, VT). Samples were measured in three replicates. Experiments were repeated three times using different α-syn stock solutions. For each time point, arbitrary units of fluorescence were calculated from the mean values normalized against the maximum value. The percentage of fluorescence intensity at the plateau phase in Table 1 was expressed as mean #SEM. Concerning the dose response curve depicted in FIG. 2, the data were plotted using GraphPad Prism. Photo-induced Cross-linking of Unmodified Proteins (PICUP) Assay. To induce oligomerization by cross-linking, α-syn (from Rpeptide, LLC) was diluted in 10 mM phosphate buffer (pH 7.4) to reach a final concentration of 50 μM. Different compounds were added to the protein solution at a final concentration of 50 μM, resulting in a molar ratio of 1:1. PICUP assays were performed with the following controls: samples without light exposition, without Ru(bpy) or ammonium persulfate, and without compound (i.e., 0.125% DMSO). […]

The target in the next assay is T2, tau isoform 0N4R (Homo sapiens, UniProt P10636).
T2 construct: made in house; host or cells: Rosetta BL21 E. coli
T2 sequence (P10636 1-383 isoform P10636-6): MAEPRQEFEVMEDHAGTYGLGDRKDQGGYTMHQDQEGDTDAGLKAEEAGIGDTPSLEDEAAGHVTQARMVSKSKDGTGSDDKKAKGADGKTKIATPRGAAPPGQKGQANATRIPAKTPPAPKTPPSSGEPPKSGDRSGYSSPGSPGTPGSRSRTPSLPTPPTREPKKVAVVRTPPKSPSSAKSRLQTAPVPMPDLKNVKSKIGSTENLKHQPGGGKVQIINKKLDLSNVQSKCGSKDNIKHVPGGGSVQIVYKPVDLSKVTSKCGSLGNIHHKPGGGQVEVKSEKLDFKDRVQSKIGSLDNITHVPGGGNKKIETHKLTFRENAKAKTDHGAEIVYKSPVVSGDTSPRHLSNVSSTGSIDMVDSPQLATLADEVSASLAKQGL
The assay is described as follows: PICUP assay of tau 0N4R oligomer formation. In kind it is biochemical. As to conditions: tau 10 μM, compound 50 μM (molar ratio 1:5). As for the experimental part:
FIG. 5. […] Compounds 1, 2, and 8 were selected for their α-syn anti-oligomerization activity. Compound 7 was used as di-urea counterpart of compound 8, as compound 1 is the di-urea counterpart of compound 2, a dithiourea derivative. Tau (10 μM) was cross-linked (PICUP assay) with different concentrations of the di-substituted aminoindolyl derivatives at 50 μM (molar ratio 1:5).
Chemical and peptide source. Dimethylsulfoxide (DMSO) and thioflavin-T (ThT) were purchased from Alfa Aesar (Ward Hill, MA). Recombinant α-synuclein (α-syn) was procured from rPeptide (WatKinsville, GA). The recombinant p-tau isoform 1N4R was prepared as published previously (Fortin et al. 2021, Sui et al. 2015, Liu et al. 2020). Concerning the preparation of tau 0N4R, a bacterial expression plasmid consisting of the vector pET30a carrying a cDNA encoding the human Tau 0N4R isoform was a kind gift of Dr. Benjamin Wolozin (Boston University). E. coli stock (Rosetta BL21 E. coli (CamR) containing pET30a [0N4R tau wt] (KanR)) was grown in LB medium supplemented with kanamycin (50 μg/mL) and chloramphenicol (50 μg/mL). […] General Characterizations. ^1H and ^13C {1H} NMR spectra were recorded using a 500 MHz Bruker instrument working at a frequency of 500 MHz for ^1H and at 126 MHz for ^13C. […] Thioflavin fluorescence assays. Thioflavin fluorescence assays were used to monitor fibril formation of commercial recombinant α-syn at a final concentration of 2 μM and treated with control DMSO and different compounds. […] Kinetics of fibril formation have been performed using ThT as published previously.^6, 12, 13, 24 The fluorescence emission experiments were performed with the excitation and emission wavelengths set at 440 and 485 nm, respectively, with a Synergy HT multi-mode microplate reader (BioTek, Winooski, VT). Samples were measured in three replicates. […] For each time point, arbitrary units of fluorescence were calculated from the mean values normalized against the maximum value. The percentage of fluorescence intensity at the plateau phase in Table 1 was expressed as mean #SEM. […]

For the molecule `O=C(Nc1ccc(NC(=O)Nc2cccc3cc[nH]c23)cc1)Nc1cccc2cc[nH]c12` [Compound 7, 3-(1H-indol-7-yl)-1-(4-{[(1H-indol-7-yl)carbamoyl]amino}phenyl)urea], at α-synuclein (α-syn), the remaining activity at 100 µM was determined as 52.4%. Further, at tau isoform 0N4R, the “effect on tau 0N4R oligomer formation by PICUP” value is “None of these compounds were able to reduce the tau 0N4R oligomer formation”.
